Test results as given in paper PMC5365648, “Pharmacokinetics of the Novel Echinocandin CD101 in Multiple Animal Species” (Antimicrobial Agents and Chemotherapy, 2017).
Entries after “also recorded” stand apart in the source; their conditions may differ. Where two headings read alike, the source gives them in different places. Starred links: 1 amine or outer side, 2 acyl side, 3 side chain; linkers in the order of their positions; H or OH if unused. Positions of bridges follow the written chain, without caps; N, C: chain ends. Non-standard residues stand in square brackets, D forms with d. Residues, ends and D or L forms follow the SMILES beside them. *: point of attachment. Orn(4R-OH,5R-OCH2CH2NMe3+) = C[N+](C)(C)CCO[C@@H](N[*:3])[C@H](O)C[C@H](N[*:1])C(=O)[*:2]; pTerphenylCO(4''-OnC5H11) = CCCCCOc1ccc(-c2ccc(-c3ccc(C(=O)*)cc3)cc2)cc1; hTyr(3S-OH,4S-OH) = N[C@H](C(=O)O)[C@H](O)[C@@H](O)c1ccc(O)cc1; Pro(3S-OH,4S-Me) = C[C@H]1CN[C@H](C(=O)O)[C@H]1O; Hyp = O=C(O)[C@@H]1C[C@@H](O)CN1

Legend:
[1] = Dog pharmacokinetics, i.v. bolus; details: in vivo, iv, male beagle dogs, single 1.4 mg/kg slow i.v. bolus, plasma, LC-MS/MS, noncompartmental
Experimental: (§1) For each of the pharmacokinetic studies, whole-blood samples (K3EDTA as anticoagulant) were collected and centrifuged within 30 min of collection. The resulting plasma was harvested and stored at −20°C until analysis. Tissue samples were homogenized by a bead-based homogenizer following the addition of deionized water to excised tissue in a 2:1 (vol/wt) ratio and stored at −20°C until analysis. Prior to analysis, plasma or homogenized tissue samples were quenched with acetonitrile (3:1, acetonitrile-plasma or tissue ratio) containing an appropriate internal standard (isotopically labeled d9-CD101 [mouse and rat] or a structural analog [dog, monkey, and chimpanzee]). Plasma and tissue homogenate concentrations (quantified against calibration standards processed the same way) were determined by reverse-phase, gradient liquid chromatography with tandem mass spectrometric detection (LC-MS/MS) using an AB-SCIEX API 3200Q/4000 mass spectrometry system. Calibration standard ranges were the following: 0.400 (lower limit of quantitation, [LLOQ]) to 200 μg/ml (CD101, mouse), 0.040 (LLOQ) to 10 μg/ml (anidulafungin, mouse), 0.002 (LLOQ) to 10 μg/ml (CD101, rat), 0.005 (LLOQ) to 10 μg/ml (anidulafungin, rat), 0.050 (LLOQ) to 10 μg/ml (CD101, dog), 0.020 (LLOQ) to 10 μg/ml (anidulafungin, dog), 0.010 (LLOQ) to 10 μg/ml (CD101, monkey), 0.001 (LLOQ) to 10 μg/ml (anidulafungin, monkey), 0.015 (LLOQ) to 10 μg/ml (CD101, chimpanzee), and 0.015 (LLOQ) to 10 μg/ml (anidulafungin, chimpanzee). When necessary, dilutions with blank matrix were made for samples that quantified above the upper limit of quantitation. The methods used in the analysis were qualified as fit for purpose: calibration standards were matrix matched with the exception that human plasma calibration standards were used to analyze chimpanzee plasma samples due to the rarity of blank chimpanzee plasma, and, for each analytical batch, triplicate calibration standards were included at the beginning, approximately in the middle, and at the end of the batch. Following analysis, quantitation was carried out by a calibration curve comprising the analyte/internal standard area ratio versus concentration. Analytical batch acceptance followed the general guidance that triplicate standards/quality controls be within ±20% for accuracy (percentage of nominal concentration) and ≤20% for precision (percent coefficient of variation).
(§2) Pharmacokinetic parameters were calculated by noncompartmental analysis using Phoenix WinNonlin (version 6.3; Pharsight, Mountain View, CA) from either individual or mean (mouse) concentration-time profiles. An unpaired t test was used to compare mean exposures from male and female rats.

[2] = Cynomolgus monkey pharmacokinetics, i.v. bolus; design: species or system cynomolgus monkeys; details: in vivo, iv, male cynomolgus monkeys, single 2.13 mg/kg slow i.v. bolus, plasma, LC-MS/MS, noncompartmental
Experimental: A single dose of 2.13 mg/kg CD101 or 2.8 mg/kg anidulafungin was administered by slow i.v. bolus (∼10 min) to cynomolgus monkeys (n = 3/group), and blood samples (via peripheral vein) were drawn for plasma processing at 0.167, 0.5, 1, 3, 8, 12, 24, 48, and 72 h postdose.
as §1, §2

[3] = Excretion in bile duct-cannulated rats; assay type: in vivo, Sprague-Dawley rats; details: for dose excreted at 120 h: bile duct-cannulated male Sprague-Dawley rats, single 5 mg/kg i.v. bolus, over 5 days, n = 3
Experimental: (§3) In one of three rat studies reported here, a single 5-, 15-, or 45-mg/kg dose of CD101 was administered by slow i.v. bolus (∼3 min) to Sprague-Dawley rats (n = 3 to 5/dose). Blood samples (via jugular vein catheter [JVC]) were drawn for plasma processing at 0.083, 0.25, 0.5, 1, 2, 4, 8, 24, 48, 120, 168, and 240 h after dosing. In the second rat study, conducted to assess tissue distribution, a single 5-mg/kg dose of CD101 was administered by slow i.v. bolus (∼3 min) to male Sprague-Dawley rats (n = 3 animals/time point). Blood samples (via cardiac puncture) were collected for plasma processing predose and at 0.083, 0.5, 1, 2, 4, 8, 24, 48, 72, 96, and 120 h postdose. In parallel with blood collection, animals were euthanized, and tissues (liver, lungs, kidneys, heart, spleen, and brain) were excised and frozen prior to analysis. In the third rat study, conducted to assess excretion, a single 5-mg/kg dose of CD101 was administered by slow i.v. bolus (∼3 min) to bile duct-cannulated male Sprague-Dawley rats (n = 3). Bile samples were collected from each animal into prelabeled bile collection tubes predose and at 0 to 8, 8 to 24, 24 to 48, 48 to 72, 72 to 96, and 96 to 120 h postdose; urine samples were collected from each animal at the same time points pre- and postdose.
as §1, with “Analytical batch acceptance followed the general guidance that triplicate standards/quality controls be within ±20% for accuracy (percentage of nominal concentration) and ≤20% for precision (percent coefficient of variation).” left out

[4] = Rat pharmacokinetics, i.v. bolus; assay type: in vivo, Sprague-Dawley rats
Experimental: as §3, §1, §2

[5] = rat, in vivo, iv, 5 mg/kg, female Sprague-Dawley rats, single 5 mg/kg slow i.v. bolus, plasma, LC-MS/MS, noncompartmental, n = 3 to 5/dose
[6] = rat, in vivo, iv, 5 mg/kg, male Sprague-Dawley rats, single 5 mg/kg slow i.v. bolus, plasma, LC-MS/MS, noncompartmental, n = 3 to 5/dose
[7] = rat, in vivo, iv, 15 mg/kg, female Sprague-Dawley rats, single 15 mg/kg slow i.v. bolus, plasma, LC-MS/MS, noncompartmental, n = 3 to 5/dose
[8] = rat, in vivo, iv, 15 mg/kg, male Sprague-Dawley rats, single 15 mg/kg slow i.v. bolus, plasma, LC-MS/MS, noncompartmental, n = 3 to 5/dose
[9] = rat, in vivo, iv, 45 mg/kg, female Sprague-Dawley rats, single 45 mg/kg slow i.v. bolus, plasma, LC-MS/MS, noncompartmental, n = 3 to 5/dose
[10] = rat, in vivo, iv, 45 mg/kg, male Sprague-Dawley rats, single 45 mg/kg slow i.v. bolus, plasma, LC-MS/MS, noncompartmental, n = 3 to 5/dose

CCCCCOc1ccc(-c2ccc(-c3ccc(C(=O)N[C@H]4C[C@@H](O)[C@@H](OCC[N+](C)(C)C)NC(=O)[C@@H]5[C@@H](O)[C@@H](C)CN5C(=O)[C@H]([C@@H](C)O)NC(=O)[C@H]([C@H](O)[C@@H](O)c5ccc(O)cc5)NC(=O)[C@@H]5C[C@@H](O)CN5C(=O)[C@H]([C@@H](C)O)NC4=O)cc3)cc2)cc1 [CD101] ({pTerphenylCO(4''-OnC5H11)}-[Orn(4R-OH,5R-OCH2CH2NMe3+)]T[Hyp][hTyr(3S-OH,4S-OH)]T[Pro(3S-OH,4S-Me)]; lactam 1-C)
AUC(0-t) ([1]; n = 4): 48700 ng·h/mL
Cmax ([1]; n = 4): 1570 ng/mL
Tmax ([1]; n = 4): 4.98 min
clearance ([1]; n = 4, read-out: CL (clearance)): 0.301 mL/min/kg
AUC(0-t) ([2]; n = 3): 92100 ng·h/mL
Cmax ([2]; n = 3): 9070 ng/mL
Tmax ([2]; n = 3): 10 min
half-life ([2]; n = 3): 2380 min
clearance ([2]; n = 3, read-out: CL (clearance)): 0.405 mL/min/kg
Vd ([2]; n = 3, read-out: Vss (volume of distribution at steady state)): 0.597 L/kg
dose excreted ([3]; male, Sprague-Dawley, rat, bile plus faeces, iv, bile duct-cannulated rats, 5 mg/kg i.v., bile plus feces): ~50%
biotransformation in plasma, bile samples, and excreta ([3]; nonradiolabeled material, rats, data not shown): no biotransformation was observed
dose excreted at 120 h ([3]; rat, faeces, iv, intact drug, read-out: mean cumulative amount excreted into feces, % of total dose): 27.7%
dose excreted at 120 h ([3]; rat, iv, intact drug, read-out: mean cumulative amount excreted into bile, % of total dose): 22.6%
dose excreted at 120 h ([3]; rat, urine, iv, read-out: total dose recovered in urine): 1.4%
Tmax ([4]; female Sprague-Dawley rats, single 5 mg/kg slow i.v. bolus, plasma, LC-MS/MS, noncompartmental, n = 3 to 5/dose): 4.98 min
Tmax ([4]; male Sprague-Dawley rats, single 15 mg/kg slow i.v. bolus, plasma, LC-MS/MS, noncompartmental, n = 3 to 5/dose): 4.98 min
Tmax ([4]; male Sprague-Dawley rats, single 45 mg/kg slow i.v. bolus, plasma, LC-MS/MS, noncompartmental, n = 3 to 5/dose): 4.98 min
AUC(0-inf) [4, 5]: 188 µg·h/mL
AUC(0-t) [4, 5]: 185 µg·h/mL
Cmax [4, 5]: 10500 ng/mL
half-life [4, 5]: 2140 min
clearance ([4]; rat, in vivo, iv, 5 mg/kg, female Sprague-Dawley rats, single 5 mg/kg slow i.v. bolus, plasma, LC-MS/MS, noncompartmental, n = 3 to 5/dose, read-out: CL (clearance)): 0.444 mL/min/kg
Vd ([4]; rat, in vivo, iv, 5 mg/kg, female Sprague-Dawley rats, single 5 mg/kg slow i.v. bolus, plasma, LC-MS/MS, noncompartmental, n = 3 to 5/dose, read-out: Vss (volume of distribution at steady state)): 1.21 L/kg
AUC(0-inf) [4, 6]: 183 µg·h/mL
AUC(0-t) [4, 6]: 180 µg·h/mL
Cmax [4, 6]: 12000 ng/mL
half-life [4, 6]: 2090 min
clearance ([4]; rat, in vivo, iv, 5 mg/kg, male Sprague-Dawley rats, single 5 mg/kg slow i.v. bolus, plasma, LC-MS/MS, noncompartmental, n = 3 to 5/dose, read-out: CL (clearance)): 0.456 mL/min/kg
Vd ([4]; rat, in vivo, iv, 5 mg/kg, male Sprague-Dawley rats, single 5 mg/kg slow i.v. bolus, plasma, LC-MS/MS, noncompartmental, n = 3 to 5/dose, read-out: Vss (volume of distribution at steady state)): 1.16 L/kg
AUC(0-inf) [4, 7]: 441 µg·h/mL
AUC(0-t) [4, 7]: 435 µg·h/mL
Cmax [4, 7]: 27600 ng/mL
half-life [4, 7]: 2090 min
clearance ([4]; rat, in vivo, iv, 15 mg/kg, female Sprague-Dawley rats, single 15 mg/kg slow i.v. bolus, plasma, LC-MS/MS, noncompartmental, n = 3 to 5/dose, read-out: CL (clearance)): 0.567 mL/min/kg
Vd ([4]; rat, in vivo, iv, 15 mg/kg, female Sprague-Dawley rats, single 15 mg/kg slow i.v. bolus, plasma, LC-MS/MS, noncompartmental, n = 3 to 5/dose, read-out: Vss (volume of distribution at steady state)): 1.45 L/kg
AUC(0-inf) [4, 8]: 580 µg·h/mL
AUC(0-t) [4, 8]: 562 µg·h/mL
Cmax [4, 8]: 35900 ng/mL
half-life [4, 8]: 2560 min
clearance ([4]; rat, in vivo, iv, 15 mg/kg, male Sprague-Dawley rats, single 15 mg/kg slow i.v. bolus, plasma, LC-MS/MS, noncompartmental, n = 3 to 5/dose, read-out: CL (clearance)): 0.431 mL/min/kg
Vd ([4]; rat, in vivo, iv, 15 mg/kg, male Sprague-Dawley rats, single 15 mg/kg slow i.v. bolus, plasma, LC-MS/MS, noncompartmental, n = 3 to 5/dose, read-out: Vss (volume of distribution at steady state)): 1.42 L/kg
AUC(0-inf) [4, 9]: 1510 µg·h/mL
AUC(0-t) [4, 9]: 1490 µg·h/mL
Cmax [4, 9]: 115000 ng/mL
half-life [4, 9]: 2390 min
clearance ([4]; rat, in vivo, iv, 45 mg/kg, female Sprague-Dawley rats, single 45 mg/kg slow i.v. bolus, plasma, LC-MS/MS, noncompartmental, n = 3 to 5/dose, read-out: CL (clearance)): 0.496 mL/min/kg
Vd ([4]; rat, in vivo, iv, 45 mg/kg, female Sprague-Dawley rats, single 45 mg/kg slow i.v. bolus, plasma, LC-MS/MS, noncompartmental, n = 3 to 5/dose, read-out: Vss (volume of distribution at steady state)): 1.55 L/kg
AUC(0-inf) [4, 10]: 1660 µg·h/mL
AUC(0-t) [4, 10]: 1610 µg·h/mL
Cmax [4, 10]: 164000 ng/mL
half-life [4, 10]: 2670 min
clearance ([4]; rat, in vivo, iv, 45 mg/kg, male Sprague-Dawley rats, single 45 mg/kg slow i.v. bolus, plasma, LC-MS/MS, noncompartmental, n = 3 to 5/dose, read-out: CL (clearance)): 0.452 mL/min/kg
Vd ([4]; rat, in vivo, iv, 45 mg/kg, male Sprague-Dawley rats, single 45 mg/kg slow i.v. bolus, plasma, LC-MS/MS, noncompartmental, n = 3 to 5/dose, read-out: Vss (volume of distribution at steady state)): 1.57 L/kg
Vd ([4]; rat, in vivo, iv, rat, intravenous, one value for the species as given in the abstract (doses 5, 15, 45 mg/kg, both sexes in Table 1), read-out: Vss): 1.39 L/kg
clearance ([4]; rat, in vivo, iv, rat, intravenous, one value for the species as given in the abstract (doses 5, 15, 45 mg/kg, both sexes in Table 1), read-out: clearance): 0.47 mL/min/kg
Tmax ([4]; rat, in vivo, iv, female Sprague-Dawley rats, single 15 mg/kg slow i.v. bolus, plasma, LC-MS/MS, noncompartmental, n = 3 to 5/dose, read-out: Tmax): 4.98 min
Tmax ([4]; rat, in vivo, iv, female Sprague-Dawley rats, single 45 mg/kg slow i.v. bolus, plasma, LC-MS/MS, noncompartmental, n = 3 to 5/dose, read-out: Tmax): 4.98 min
Tmax ([4]; rat, in vivo, iv, male Sprague-Dawley rats, single 5 mg/kg slow i.v. bolus, plasma, LC-MS/MS, noncompartmental, n = 3 to 5/dose, read-out: Tmax): 4.98 min
half-life ([4]; rat, in vivo, iv, one value for the species as given in the abstract (doses 5, 15, 45 mg/kg, both sexes in Table 1)): 2340 min
PK differences between males and females ([4]; rats (Table 1) or monkeys (data not shown)): no sex differences; also recorded: No PK differences between males and females
